This note sets out measurements from paper PMC2978906 (Cancer prevention research (Philadelphia, Pa.), 2010).

The experiment has as its target T1, estrogen receptor α (ER-α) (Homo sapiens, UniProt P03372).
T1 sequence (P03372 311-547 limits assumed): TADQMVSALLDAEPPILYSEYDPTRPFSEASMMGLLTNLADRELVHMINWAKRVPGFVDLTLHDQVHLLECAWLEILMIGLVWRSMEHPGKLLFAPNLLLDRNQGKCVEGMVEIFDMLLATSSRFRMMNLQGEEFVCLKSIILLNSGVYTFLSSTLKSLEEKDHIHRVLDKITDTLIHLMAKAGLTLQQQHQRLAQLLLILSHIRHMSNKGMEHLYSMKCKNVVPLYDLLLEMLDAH
Kind of experiment: LanthaScreen TR-FRET competitive binding assay.

`CC(C)c1cc2c(c(O)c1O)[C@@]13CCCC(C)(C)[C@@H]1C[C@@H]2OC3=O` [carnosol] showed a half-inhibitory concentration (IC50) of 51 µM.
